This note sets out measurements from patent US5041570A, “Photosensitive 4,4'-diazidostilbene derivative” (priority 1988, dated 1991).

Format in all cases: physicochemical
The nature of data set [1]: Solubility of photosensitive agent in polyvinylpyrrolidone/ethylcellosolve solution. Particulars: Table 4; 5 g polyvinylpyrrolidone in 106 g ethylcellosolve; sodium salt (*): solubility varied with crystal form.
Data set [2] is described as follows: Solubility in water.
Data set [3] can be described thus: Solubility in ethylcellosolve solution containing 4.5% polyvinylpyrrolidone and compatibility with binder polymers. To be noted: Example 20. The text has this: A 4,4'-diazidostilbene-2,2'-disulfonic acid aqueous solution was obtained using the same procedures as in Example 15. It was mixed with dibutylamine and the pH value adjusted to 9.0 to deposit crystals. The crystals were filtered, washed with water, and dried to obtain dibutylamine salt of 4,4'-diazidostilbene-2,2'-disulfonic acid (yield: 91.2%).

Data set [4] is described as follows: Solubility of photosensitive agent in polyvinylpyrrolidone/ethylcellosolve solution. Particulars: Table 2; 5 g polyvinylpyrrolidone in 106 g ethylcellosolve; sodium salt (*): solubility varied with crystal form. How it is done: The respective Amides synthesized in Examples 1 and 2 in amounts shown in Table 2 are dissolved in a solution comprising 5 g of polyvinylpyrrolidone (average molecular weight: 320,000) dissolved in 106 g of ethylcellosolve,to evaluate their solubility.

Data set [5] can be described thus: Solubility in 2.5% ethylcellosolve. Also on record: key to Solubility in 2.5% ethylcellosolve, 25° C. / Solubility in 2.5% ethylcellosolve, 60° C.: Good: completely soluble; Fair: with small amounts of undissolved portion; Poor: with large amounts of undissolved portion. To be noted: for Solubility in 2.5% ethylcellosolve, 25° C. / Solubility in 2.5% ethylcellosolve, 60° C.: Table 7; for solubility (comparison in words): compared to Comparative Examples 14-16, Table 7. On the procedure:
(§1) The compounds shown in Table 7 were prepared using the same procedures as in Example 16, and each compound was measured for solubilities in 2.5% ethylcellosolve and water to obtain the results shown in Table 7.

A short description of data set [6]: Solubility in water. How it is done:
as §1
The source holds these as a separate data set.

Where [7] appears, read: listed as Comparative Example 16.
Where [8] appears, read: listed as Comparative Example 15.

Where a name gives a salt, the structure may show the parent alone.

Take `CCCCCCCNS(=O)(=O)c1cc(N=[N+]=[N-])ccc1C=Cc1ccc(N=[N+]=[N-])cc1S(=O)(=O)NCCCCCCC` [Amide No. 11]: in data set [1], the Solubility result is listed as “Good”.
Take `[N-]=[N+]=Nc1ccc(C=Cc2ccc(N=[N+]=[N-])cc2S(=O)(=O)O)c(S(=O)(=O)O)c1` [Example 20, dibutylamine salt of 4,4'-diazidostilbene-2,2'-disulfonic acid]: in the data set “Solubility in water [2]” (Example 20), the “solubility in water (in words)” value is “very low in solubility in water”. For the same compound, in data set [3], the “compatibility with binder polymers” value is reported as “high in compatibility with binder polymers” and the “soluble in an ethylcellosolve solution containing 4.5% polyvinylpyrrolidone” value is no less than 5%.
Consider `COCCOCCNS(=O)(=O)c1cc(N=[N+]=[N-])ccc1C=Cc1ccc(N=[N+]=[N-])cc1S(=O)(=O)NCCOCCOC` [Amide No. 7], for which the Solubility entry in data set [4] is on record as “Good”.
`CC1CC(=Cc2ccc(N=[N+]=[N-])cc2S(=O)(=O)O)C(=O)C(=Cc2ccc(N=[N+]=[N-])cc2S(=O)(=O)O)C1` (stereo not shown) [Example 19, triethylamine salt of 2,6-bis-(4'-azidobenzal)-4-methyl-cyclohexanone-2,2'-disulfonic acid]: the “Solubility (water, 25° C.)” value in “Solubility in water [2]” (Table 6) was no less than 10%.
`[N-]=[N+]=Nc1ccc(C=Cc2ccc(N=[N+]=[N-])cc2S(=O)(=O)O)c(S(=O)(=O)O)c1` [Ammonium salt, reference compound]: the Solubility entry in data set [1] and in data set [4] was “Poor” each time. Moreover, the “Solubility in 2.5% ethylcellosolve, 25° C.” value in data set [5] (setting [7]) is on record as “Poor”. In data set [5] (setting [7]), the “Solubility in 2.5% ethylcellosolve, 60° C.” value is “Poor”. For the same compound, the “Solubility in water, 25° C.” value in the data set “Solubility in water [6]” (Table 7, listed as Comparative Example 16) is 18%. Moreover, in the data set “Solubility in water [2]” (Table 5, listed as Comparative Example 12), the “Solubility (water, 25° C.)” value worked out at 1.8%.
On to `[N-]=[N+]=Nc1ccc(C=Cc2ccc(N=[N+]=[N-])cc2S(=O)(=O)O)c(S(=O)(=O)O)c1` [Example 22], for which, in data set [5], the “Solubility in 2.5% ethylcellosolve, 25° C.” value is “Good”; the “Solubility in 2.5% ethylcellosolve, 60° C.” value is listed as “Good”; the “solubility (comparison in words)” value was “good solubilities”. Moreover, in the data set “Solubility in water [6]” (Table 7), the “Solubility in water, 25° C.” value is given as no less than 10%.
In the case of `[N-]=[N+]=Nc1ccc(C=Cc2ccc(N=[N+]=[N-])cc2S(=O)(=O)O)c(S(=O)(=O)O)c1` [Example 17, triethylamine salt of 4,4'-diazidostilbene-2,2'-disulfonic acid], the “Solubility (water, 25° C.)” value in the data set “Solubility in water [2]” (Table 5) is listed as no less than 10%.
As to `CC1CC(=Cc2ccc(N=[N+]=[N-])cc2S(=O)(=O)O)C(=O)C(=Cc2ccc(N=[N+]=[N-])cc2S(=O)(=O)O)C1` (stereo not shown) [Example 18], the “Solubility (water, 25° C.)” value in “Solubility in water [2]” (Table 6) is reported as 7.0%.
`[N-]=[N+]=Nc1ccc(C=Cc2ccc(N=[N+]=[N-])cc2S(=O)(=O)O)c(S(=O)(=O)O)c1` [compound 11, reference compound]: in data set [5] (setting [8]), the “Solubility in 2.5% ethylcellosolve, 25° C.” value is recorded as “Poor” and the “Solubility in 2.5% ethylcellosolve, 60° C.” value was “Poor”. The “Solubility (water, 25° C.)” value in the data set “Solubility in water [2]” (Table 5) came to 3.0%.
Regarding `CC(CCO)NS(=O)(=O)c1cc(N=[N+]=[N-])ccc1C=Cc1ccc(N=[N+]=[N-])cc1S(=O)(=O)NC(C)CCO` (stereo not shown) [Amide No. 3], the Solubility entry in data set [4] is “Good”.
Turning to `[N-]=[N+]=Nc1ccc(C=Cc2ccc(N=[N+]=[N-])cc2S(=O)(=O)NCCO)c(S(=O)(=O)NCCO)c1` [Amide No. 2], the Solubility result in data set [4] is “Good”.
On to `CC(C)CNS(=O)(=O)c1cc(N=[N+]=[N-])ccc1C=Cc1ccc(N=[N+]=[N-])cc1S(=O)(=O)NCC(C)C` [Amide No. 10], for which, in data set [1], the Solubility entry was “Good”.
Take `CCOCCOS(=O)(=O)c1cc(N=[N+]=[N-])ccc1C=Cc1ccc(N=[N+]=[N-])cc1S(=O)(=O)OCCOCC` [Ester B, reference compound]: the Solubility entry in data set [4] is given as “Good”.
As to `CCOCCNS(=O)(=O)c1cc(N=[N+]=[N-])ccc1C=Cc1ccc(N=[N+]=[N-])cc1S(=O)(=O)NCCOCC` [Amide No. 8], in data set [4], the Solubility entry was “Good”.
Turning to `[N-]=[N+]=Nc1ccc(C=Cc2ccc(N=[N+]=[N-])cc2S(=O)(=O)O)c(S(=O)(=O)O)c1` [Example 21], in data set [5], the “Solubility in 2.5% ethylcellosolve, 25° C.” value is “Good”; the “Solubility in 2.5% ethylcellosolve, 60° C.” value is recorded as “Good”; the “solubility (comparison in words)” value is “good solubilities”. Also, the “Solubility in water, 25° C.” value in the data set “Solubility in water [6]” (Table 7) is 6.5%.
For `[N-]=[N+]=Nc1ccc(C=Cc2ccc(N=[N+]=[N-])cc2S(=O)(=O)NCCCO)c(S(=O)(=O)NCCCO)c1` [Amide No. 1], in data set [4], the Solubility entry is recorded as “Good”.
For the compound `CC1CC(=Cc2ccc(N=[N+]=[N-])cc2S(=O)(=O)O)C(=O)C(=Cc2ccc(N=[N+]=[N-])cc2S(=O)(=O)O)C1` (stereo not shown) [Comparative Example 13, Na salt of 2,6-bis(4'-azidobenzal)-4-methyl-cyclohexanone-2,2'-disulfonic acid, reference compound], the “Solubility (water, 25° C.)” value in “Solubility in water [2]” (Table 6) turned out to be 0.9%.
Consider `[N-]=[N+]=Nc1ccc(C=Cc2ccc(N=[N+]=[N-])cc2S(=O)(=O)Nc2ccccc2)c(S(=O)(=O)Nc2ccccc2)c1` [Arylamide A, reference compound], for which the Solubility result in data set [4] is listed as “Poor”.
`CCCCCN(CCCCC)S(=O)(=O)c1cc(N=[N+]=[N-])ccc1C=Cc1ccc(N=[N+]=[N-])cc1S(=O)(=O)N(CCCCC)CCCCC` [Amide No. 15]: the Solubility result in data set [1] is reported as “Good”.
Regarding `[N-]=[N+]=Nc1ccc(C=Cc2ccc(N=[N+]=[N-])cc2S(=O)(=O)O)c(S(=O)(=O)O)c1` [Example 16], the “Solubility (water, 25° C.)” value in “Solubility in water [2]” (Table 5) is on record as no less than 10%.
In the case of `CCCNS(=O)(=O)c1cc(N=[N+]=[N-])ccc1C=Cc1ccc(N=[N+]=[N-])cc1S(=O)(=O)NCCC` [Lower alkyl amide A, reference compound], the Solubility entry in data set [1] is listed as “Poor”.
Take `[N-]=[N+]=Nc1ccc(C=Cc2ccc(N=[N+]=[N-])cc2S(=O)(=O)[O-])c(S(=O)(=O)[O-])c1.[Na+].[Na+]` [Sodium salt, sodium 4,4'-diazidostilbene-2,2'-disulfonate, reference compound]: the Solubility result in data set [1] is recorded as “Fair”. Besides, in data set [5], the “Solubility in 2.5% ethylcellosolve, 25° C.” value was “Fair” and the “Solubility in 2.5% ethylcellosolve, 60° C.” value is “Good”. Besides, in data set [4], the Solubility entry is given as “Fair”. The “Solubility (water, 25° C.)” value in the data set “Solubility in water [2]” (Table 5) is listed as 3.3%.
Take `CCCCN(C)S(=O)(=O)c1cc(N=[N+]=[N-])ccc1C=Cc1ccc(N=[N+]=[N-])cc1S(=O)(=O)N(C)CCCC` [Amide No. 14]: the Solubility result in data set [1] is “Good”.
For the compound `CCCCCCCCNS(=O)(=O)c1cc(N=[N+]=[N-])ccc1C=Cc1ccc(N=[N+]=[N-])cc1S(=O)(=O)NCCCCCCCC` [Amide No. 9], the Solubility result in data set [1] is listed as “Good”.
Consider `CCCCOS(=O)(=O)c1cc(N=[N+]=[N-])ccc1C=Cc1ccc(N=[N+]=[N-])cc1S(=O)(=O)OCCCC` [Ester C, reference compound], for which the Solubility entry in data set [1] is recorded as “Good”.
Consider `[N-]=[N+]=Nc1ccc(C=Cc2ccc(N=[N+]=[N-])cc2S(=O)(=O)NCCOCCO)c(S(=O)(=O)NCCOCCO)c1` [Amide No. 4], for which the Solubility result in data set [4] is “Good”.
For the compound `[N-]=[N+]=Nc1ccc(C=Cc2ccc(N=[N+]=[N-])cc2S(=O)(=O)Nc2ccccc2)c(S(=O)(=O)Nc2ccccc2)c1` [Arylamide B, reference compound], the Solubility entry in data set [1] is “Poor”.
